How the values were obtained:
HCT-116 colon carcinoma = assay: Inhibition of cell proliferation, 14C-thymidine incorporation, HCT-116; type: cell-based; conditions: Homo sapiens
Method: (§1) The ability of a test compound to inhibit the proliferation of cell growth was determined by measuring incorporation of ^14C-labelled thymidine into newly synthesized DNA within the cells. This method was used on cell lines derived from carcinomas originating from several tissues such as HeLa cervical adenocarcinoma (American Type Culture Collection (ATCC), Virginia, Cat. #CCL-2), HCT-116 colon carcinoma (CCL-247), MDA-MB-231 (Xenogen Corp.), PC-3 prostate adenocarcinoma (ATCC CRL-1435) and A375 malignant melanoma (ATCC CRL-1619).
(§2) Using this method, the effect of a compound on cell growth of cells with many different phenotypes can be determined. Cells were trypsinized and counted and 3000–8000 cells were added to each well of a 96-well CytoStar tissue culture treated scintillating microplate (Amersham #RPNQ0160) in complete medium in a volume of 100 μl. Cells were incubated for 24 hours in complete medium at 37° C. in an atmosphere containing 5% CO2. 1 μL of test compound in 100% DMSO was then added to the wells of the plate. DMSO only was added to control wells. Cells were incubated for 24 more hours in complete medium at 37° C. in an atmosphere containing 5% CO2. […] The degree of methyl ^14C-thymidine incorporation was quantified on a Packard Top Count.

MAP Kinase ERK-2 = target: T1, MAP Kinase ERK-2 (Rattus norvegicus, UniProt P63086); assay: Kinase selectivity assay MAP Kinase ERK-2; type: biochemical
T1 construct: polyhistidine (N); purchased BIOMOL SE-137; host or cells: E. coli
T1 sequence (P63086 whole entry): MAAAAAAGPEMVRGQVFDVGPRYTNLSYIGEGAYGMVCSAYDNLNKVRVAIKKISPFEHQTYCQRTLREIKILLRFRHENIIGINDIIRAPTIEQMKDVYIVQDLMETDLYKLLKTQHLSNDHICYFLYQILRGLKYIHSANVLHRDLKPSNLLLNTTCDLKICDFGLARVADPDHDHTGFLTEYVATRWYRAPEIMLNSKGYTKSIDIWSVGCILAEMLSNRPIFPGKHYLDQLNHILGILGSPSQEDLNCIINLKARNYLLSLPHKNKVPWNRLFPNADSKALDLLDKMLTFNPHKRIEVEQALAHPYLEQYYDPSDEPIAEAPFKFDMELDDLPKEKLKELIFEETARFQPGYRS
Method: (§3) Assays to test compound inhibition of other kinases were preformed using methods that measure the amount of phosphorylation of a biotinylated peptide substrate. Biotinylated peptide substrates were selected from the literature as appropriate for the enzyme being evaluated. The general procedure used to assay for kinase activity is as follows: a kinase reaction mix was prepared in 50 mM Tris-HCl pH=8, 10 mM MgCl2, 0.1 mM Na3VO4, 1 mM DTT, 10 μM ATP, 0.25–1 μM biotinylated peptide substrate, 0.2–0.8 μCuries per well ^33P-γ-ATP (2000–3000 Ci/mmol). Assay conditions vary slightly for each protein kinase, for example, insulin receptor kinase requires 10 mM MnCl2 for activity and Calmodulin-dependent protein kinase requires calmodulin and 2 mM CaCl2. The reaction mixture was dispensed into the wells of a streptavidin coated Flashplate and 1 μL test compound in 100% DMSO was added to a 100 μL reaction volume resulting in a final concentration of 1% DMSO in the reaction. Enzyme was diluted in 50 mM Tris-HCl pH=8.0, 0.1% BSA and added to each well. The reaction was incubated for one hour at 30° C. in the presence of a test compound. […] The plate was read on a scintillation counter to determine ^33P-γ-ATP incorporated into the immobilized peptide substrate. […] A maximum and minimum signal for the assay was determined on each plate. […]

MDA-MB-231 = assay: Inhibition of cell proliferation, 14C-thymidine incorporation, MDA-MB-231; type: cell-based; conditions: Homo sapiens
Method: as §1, §2

[1] = tested on: HeLa cervical adenocarcinoma; assay: Inhibition of cell proliferation, 14C-thymidine incorporation, HeLa; type: cell-based; conditions: Homo sapiens
Method: as §1, §2

Insulin Receptor Kinase = target: T2, Insulin Receptor Kinase (Homo sapiens, UniProt P06213); assay: Kinase selectivity assay Insulin Receptor Kinase; type: biochemical
T2 construct: consists of residues 941–1313 of the cytoplasmic domain of the beta-subunit of the human insulin receptor; purchased BIOMOL SE-195
T2 sequence (P06213 980-1352): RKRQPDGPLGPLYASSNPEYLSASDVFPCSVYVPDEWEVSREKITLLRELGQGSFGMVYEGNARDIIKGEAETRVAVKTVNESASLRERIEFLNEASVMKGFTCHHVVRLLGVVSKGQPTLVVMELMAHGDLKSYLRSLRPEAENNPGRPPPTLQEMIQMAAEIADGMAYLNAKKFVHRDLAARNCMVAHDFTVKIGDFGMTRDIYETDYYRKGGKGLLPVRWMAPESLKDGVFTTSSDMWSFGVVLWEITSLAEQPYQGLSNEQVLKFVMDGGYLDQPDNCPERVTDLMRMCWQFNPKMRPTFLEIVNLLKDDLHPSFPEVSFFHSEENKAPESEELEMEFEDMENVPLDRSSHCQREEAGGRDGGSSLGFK
Method: as §3

IC50 (MDA-MB-231) [nM] | SMILES | IC50 (HCT-116 colon carcinoma) [nM] | IC50 (MAP Kinase ERK-2) [nM] | IC50 [1] [nM] | IC50 (Insulin Receptor Kinase) [nM]
330 | OCCCNc1cncc(-c2ncnc(Nc3cccc(Cl)c3)n2)c1 [Compound 1, 3-((5-(4-((3-chlorophenyl)amino)-1,3,5-triazin-2-yl)-3-pyridinyl)amino)-1-propanol] | 278 | > 100000 | 298 | 18200
 | OCCCNc1cc(-c2ncnc(Nc3cccc(Cl)c3)n2)ccn1 [Compound 2, 3-((4-(4-((3-chlorophenyl)amino)-1,3,5-triazin-2-yl)-2-pyridinyl)amino)-1-propanol] | 48 | > 10000 | 105 | > 10000

Source: patent publication US7205298B2, “Substituted triazine kinase inhibitors” (Janssen Pharmaceutica N.V., priority 2002, dated 2007)
